The results in this text go back to patent US7786088B2, “Targeting vector to the urokinase plasminogen activator receptor” (University of Iowa Research Foundation, priority 2000, dated 2010).

Data set [1] relates to human airway epithelia. The experiment in a line: gene transfer by adenovirus:CaPi coprecipitate (β-galactosidase activity). In kind it is cell-based. How it is done:
B. Evaluation of Gene Transfer: The apical surface of human airway epithelia was washed once with PBS. Adenovirus was applied at a multiplicity of infection (MOI) of 50 to the apical surface for 30 minutes at 37° C. Adenovirus was applied either alone or in a CaPi coprecipitate as previously described by Fasbender et al., J. Clin. Invest. 102:184-193 (1998) and Lee et al., Hum. Gene Ther. 10:603-13 (1999) (incorporated herein by reference). Following 3 washes, cells were returned to the incubator and assayed for gene transfer 48 hours later. AAV2 was applied at an MOI<1 to the apical surface for 30 minutes at 37° C. AAV2 was applied either alone or on a CaPi coprecipitate formed as previously described by Fasbender et al. and Lee et al. for adenovirus. Following 3 washes, cells were returned to the incubator and assayed for gene transfer 14 days later. Total β-galactosidase activity was measured using a commercially available technique (Galacto-Light, Topix, Bedford, Mass.).

Data set [2] concerns human airway epithelia. The experiment in a line: fluid phase endocytosis, uptake of Texas Red dextran. In kind it is cell-based. As to conditions: 0.15 μM peptide applied to apical surface, FIG. 4. How it is done: B. Assay for Fluid Phase Endocytosis: Cells were chilled on ice for 15 minutes and then incubated with […] uPA or 0.15 μM u7-peptide (SEQ ID NO:1) added to the apical surface for 30 minutes at 4° C. Following 3 washes in PBS, cells were incubated with 0.5 mg/ml Texas Red-labeled fixable dextran (3,000 MW, Molecular Probes, Eugene, Oreg.) for 10 minutes at 37° C. Following 3 washes in PBS, cells were fixed with 4% paraformaldehyde, mounted onto class slides with Vectashield (Vector Laboratories, Inc., Burlingame, Calif.), and viewed by fluorescence microscopy. Control cells were incubated with Texas Red-labeled dextran alone to measure basal levels of endocytosis. Monkey tracheal explants were assayed as described for primary cell cultures. To evaluate time-dependent changes, cells were treated as described above with uPA (50 nM) followed by incubations in Texas Red dextran for 5, 10, 30 or 60 minutes at 37° C. […]
B. Effect of uPA on Fluid Phase Endocytosis in Human Airway Epithelia: Stimulation of endocytosis by uPA was determined by measuring the uptake of Texas Red-conjugated dextran, a fluid phase marker. […]

The next data set concerns CF airway epithelia. The experiment in a line: cAMP-stimulated short-circuit current after Ad2/CFTR-16:CaPi gene transfer. Type of data set: cell-based, human. As to conditions: FIG. 5C; for correction of Cl− channel defect (cAMP-stimulated current): CF airway epithelia, Ad2/CFTR-16 in CaPi coprecipitate. The procedure: C. Measurement of Transepithelial Electrical Properties: Epithelia were mounted in modified Ussing chambers (Jim's Instruments, Iowa City, Iowa) and bathed with Ringer's solution on their submucosal side (135 mM NaCl, 2.4 K2HPO4, 0.6 mM […], 1.2 mM CaCl2, 1.2 mM MgCl2, 5 mM Hepes, pH 7.4 and 10 mM dextrose). The mucosal surface was bathed in the identical solution, except that 135 mM NaGluconate replaced the 135 mM NaCl. In this way, a transepithelial Cl^− concentration gradient was established in order to magnify changes in Cl^− transport. The transepithelial Na^+ transport was blocked with mucosal amiloride (10 μM). Mucosal DIDS (100 μM) blocked non-CFTR Cl^− transport. The cAMP agonists, forskolin (10 μM) and IBMX (100 μM) were applied to both solutions to stimulate transepithelial Cl^− transport via CFTR.
The ability of uPA to enhance gene transfer and expression of CFTR in differentiated CF airway epithelia was also tested.

In data set [3] the test system is human airway epithelia. The experiment in a line: tight junction integrity measured by transepithelial resistance. As to conditions: following uPA or u7 treatment. How it is done:
D. uPA Enhancement of Gene Transfer: The ability of uPA to enhance gene transfer by nonspecifically bound vector was tested.

Regarding “CLNGGTC (listed as Homo sapiens) [u7-peptide]”, the “increase in gene transfer compared to the coprecipitate alone” value in the data set with human airway epithelia [1] (apical application before CaPi:adenovirus coprecipitates (uPA 50 nM), assayed 48 hours later, FIG. 5A) was 8-10 fold. Further, the “effect on gene transfer by CaPi coprecipitate (in words)” value with human airway epithelia [1] (compared with uPA) is “effect similar to uPA”. Moreover, the “stimulation of fluid phase endocytosis” value with human airway epithelia [2] was “stimulated fluid phase endocytosis”. Moreover, the “correction of Cl− channel defect (cAMP-stimulated current)” value is reported as “further enhanced the correction” with CF airway epithelia and “to a greater extent than the full length uPA” with CF airway epithelia (listed as u7 peptide). Besides, the “uptake of a vector expressing CFTR” value in the data set on CF airway epithelia (cystic fibrosis (CF) airway epithelia) is on record as “enhanced the uptake”. For the same substance, in the data set on human airway epithelia [3], the transepithelial resistance entry is given as “did not change”.

With “CTCGNCL [scrambled peptide, reference compound]”, the “stimulation of fluid phase endocytosis” value with human airway epithelia [2] is “did not”.
